Holding throughout (type): cell-based
For assay [1], the system named is Trichophyton mentagrophytes 28556. The assay can be described thus: MIC susceptibility testing. The note with it: Trichophyton mentagrophytes, 28556; CLSI M38-A2; read-out: Voriconazole MIC. As for the experimental part: (§1) Occidiofungin was purified from a liquid culture of Burkholderia contaminans MS14 as previously described ([21]). MIC susceptibility testing was performed according to the CLSI M27-A3 and M38-A2 standards for the susceptibility testing of yeasts and filamentous fungi, respectively. S. cerevisiae deletion mutants were obtained from the commercially available BY4741 deletion library (Thermo Scientific).

In assay [2] the test system is Trichophyton rubrum 28659. Put plainly: MIC susceptibility testing. The note with it: Trichophyton rubrum, 28659; CLSI M38-A2; read-out: Voriconazole MIC. As for the experimental part: as §1
Assay [3] deals with Trichophyton mentagrophytes 28641. The assay can be described thus: MIC susceptibility testing. The note with it: Trichophyton mentagrophytes, 28641; CLSI M38-A2; read-out: Voriconazole MIC. As for the experimental part: as §1
Assay [4] concerns Mucor circinelloides 19445. Put plainly: MIC susceptibility testing. To be noted: Mucor circinelloides, 19445; CLSI M38-A2; read-out: Voriconazole MIC. As for the experimental part:
as §1

For assay [5], the system named is Aspergillus fumigatus 28436. Put plainly: MIC susceptibility testing. The note with it: Aspergillus fumigatus, 28436; CLSI M38-A2; read-out: Voriconazole MIC. The method, then:
as §1

Assay [6] has as its system Fusarium solani 18749. Put plainly: MIC susceptibility testing. The note with it: Fusarium solani, 18749; CLSI M38-A2; read-out: Voriconazole MIC. The method, then:
as §1

Assay [7] deals with Trichophyton rubrum 28658. The assay can be described thus: MIC susceptibility testing. To be noted: Trichophyton rubrum, 28658; CLSI M38-A2; read-out: Voriconazole MIC. The method, then:
as §1

Assay [8] deals with Aspergillus flavus 28455. The assay can be described thus: MIC susceptibility testing. The note with it: Aspergillus flavus, 28455; CLSI M38-A2; read-out: Voriconazole MIC. As for the experimental part: as §1
For assay [9], the system named is Rhizopus oryzae 28403. The assay can be described thus: MIC susceptibility testing. To be noted: Rhizopus arrhizus, 28403; CLSI M38-A2; read-out: Voriconazole MIC. As for the experimental part: as §1
Assay [10] concerns Fusarium solani 28386. Put plainly: MIC susceptibility testing. To be noted: Fusarium solani, 28386; CLSI M38-A2; read-out: Voriconazole MIC. As for the experimental part:
as §1

The test system of assay [11] is Rhizopus microsporus 28506. Put plainly: MIC susceptibility testing. The note with it: Rhizopus microsporus, 28506; CLSI M38-A2; read-out: Voriconazole MIC. The method, then: as §1
Assay [12] relates to Rhizopus microsporus 27785. Put plainly: MIC susceptibility testing. To be noted: Rhizopus microsporus, 27785; CLSI M38-A2; read-out: Voriconazole MIC. As for the experimental part:
as §1

For assay [13], the system named is Aspergillus fumigatus 28434. The assay can be described thus: MIC susceptibility testing. To be noted: Aspergillus fumigatus, 28434; CLSI M38-A2; read-out: Voriconazole MIC. The method, then:
as §1

Assay [14] has as its system Aspergillus flavus 28517. The assay can be described thus: MIC susceptibility testing. The note with it: Aspergillus flavus, 28517; CLSI M38-A2; read-out: Voriconazole MIC. As for the experimental part: as §1
Assay [15] concerns Aspergillus fumigatus 28435. The assay can be described thus: MIC susceptibility testing. To be noted: Aspergillus fumigatus, 28435; CLSI M38-A2; read-out: Voriconazole MIC. The method, then:
as §1

The test system of assay [16] is Fusarium oxysporum 27718. The assay can be described thus: MIC susceptibility testing. The note with it: Fusarium oxysporum, 27718; CLSI M38-A2; read-out: Voriconazole MIC. The method, then:
as §1

The subject of assay [17] is Mucor fragilis 27782. Put plainly: MIC susceptibility testing. To be noted: Mucor fragilis, 27782; CLSI M38-A2; read-out: Voriconazole MIC. As for the experimental part: as §1
Assay [18] relates to Mucor racemosus 27784. The assay can be described thus: MIC susceptibility testing. The note with it: Mucor racemosus, 27784; CLSI M38-A2; read-out: Voriconazole MIC. As for the experimental part: as §1
For assay [19], the system named is Aspergillus flavus 28445. Put plainly: MIC susceptibility testing. The note with it: Aspergillus flavus, 28445; CLSI M38-A2; read-out: Voriconazole MIC. The method, then:
as §1

The test system of assay [20] is Trichophyton rubrum 11199. Put plainly: MIC susceptibility testing (terbinafine-resistant strain). The note with it: Trichophyton rubrum, 11199; CLSI M38-A2; read-out: Voriconazole MIC. The method, then: as §1
In assay [21] the test system is Trichophyton mentagrophytes 10207. Put plainly: MIC susceptibility testing (itraconazole-resistant strain). To be noted: Trichophyton mentagrophytes, 10207; CLSI M38-A2; read-out: Voriconazole MIC. As for the experimental part: as §1

The structures appear in SMILES notation. In brackets after ≈: the same amount, converted by molar mass.

For the compound `C[C@@H](c1ncncc1F)[C@](O)(Cn1cncn1)c1ccc(F)cc1F` [Voriconazole, voriconazole, reference compound], the MIC (commonly the smallest concentration in the dilution series that meets the test's criterion for growth inhibition) in assay [1] was 0.06 µg/mL (≈ 0.172 µM); in assay [2] it was 0.03 µg/mL (≈ 0.0859 µM); in assay [3], 0.06 µg/mL (≈ 0.172 µM); in assay [4], above 16 µg/mL; in assay [5], 1 µg/mL (≈ 2.86 µM); in assay [6] it was above 16 µg/mL. Further, the MIC in assay [7] was 0.03 µg/mL (≈ 0.0859 µM); in assay [8], 2 µg/mL (≈ 5.73 µM); in assay [9] it was above 16 µg/mL; in assay [10] it was above 16 µg/mL; in assay [11] it was 16 µg/mL (≈ 45.8 µM); in assay [12], above 16 µg/mL. The MIC was 1 µg/mL (≈ 2.86 µM) in assay [13]; 1 µg/mL (≈ 2.86 µM) in assay [14]; 1 µg/mL (≈ 2.86 µM) in [15]; above 16 µg/mL in assay [16]; above 16 µg/mL in [17]; above 16 µg/mL in [18]. Further, the MIC is 2 µg/mL (≈ 5.73 µM) in assay [19], 0.008 µg/mL (≈ 0.0229 µM) in [20] and 0.25 µg/mL (≈ 0.716 µM) in [21].

(Values after paper PMC6325233, “A Novel Actin Binding Drug with In Vivo Efficacy” (Antimicrobial Agents and Chemotherapy, 2018).)
